Assay results taken from BigSolDB 2.1.

Conditions: in n-hexane

| solubility (mole fraction) (293.15 K) | solubility (mole fraction) (298.15 K) | solubility (mole fraction) (303.15 K) | solubility (mole fraction) (310.15 K) | solubility (mole fraction) (315.15 K) | Structure (SMILES) |
| --- | --- | --- | --- | --- | --- |
| 5.39e-05 | 6.26e-05 | 6.91e-05 | 8.03e-05 | 8.67e-05 | CNC1=NCCC2(CCCCC2)S1 |
| 0.0025 | 0.0028 | 0.0031 | 0.0037 | 0.0043 | CCNC1=NCCC2(CCCCC2)S1 |
| 3.81e-05 | 5.62e-05 | 7.2e-05 | 0.000105 | 0.000129 | NC1=NCCC2(CCCCC2)S1 |
